US5892063A (Hauser, Inc., priority 1997, dated 1999)
pIC50: −log10 of the molar value. Where two headings read alike, the source gives them in different places.

Key:
[1] = SRB growth screen, whole cell line panel; assay type: cell-based; conditions: for CC50: Homo sapiens, read-out: Log10 LC50, Mean (converted); for GI50: read-out: Log10 GI50, Mean (converted); for IC (TGI): read-out: Log10 TGI, Mean (converted)
Protocol: The screening assay is performed on 96-well microtitre plates. […] Duplicate wells are prepared for all concentrations; "time-zero" and "nodrug" controls are also provided for each test. […] One hundred microliters of SRB solution (0.4% w/v in 1% acetic acid) is added to each microtitre well and incubated for 10 minutes at room temperature.
The response parameters GI50 and LC50 are interpolated values representing the concentrations at which the percentage growth (PG) is +50 and -50 respectively:
GI50 is the concentration for which the PG=+50.
TGI is the concentration for which PG=0.
LC50 is the concentration for which the PG=-50. […] This is interpreted as cytotoxicity.
The data represented in Table I is graphically represented in FIGS. 1a and 1b through FIGS. 9a and 9b. […] The following is an example of how the information in Table I and in the Figures is interpreted.

[2] = tested on: K-562; experiment: SRB growth screen, leukemia K-562; conditions: Homo sapiens, K562, 48 h; for CC50: read-out: Log10 LC50 (converted); for IC (TGI): read-out: Log10 TGI
[3] = tested on: U251; experiment: SRB growth screen, CNS cancer U251; conditions: Homo sapiens, U-251, 48 h; for CC50: read-out: Log10 LC50 (converted)
[4] = tested on: CCRF-CEM; experiment: SRB growth screen, leukemia CCRF-CEM; conditions: Homo sapiens
[5] = tested on: SF-539; experiment: SRB growth screen, CNS cancer SF-539; conditions: Homo sapiens, SF-539, 48 h; for CC50: read-out: Log10 LC50 (converted)
[6] = tested on: SNB-19; experiment: SRB growth screen, CNS cancer SNB-19; conditions: Homo sapiens, SNB-19, 48 h; for CC50: read-out: Log10 LC50 (converted); for IC (TGI): read-out: Log10 TGI
[7] = tested on: LOX-IMVI; experiment: SRB growth screen, melanoma LOX-IMVI; conditions: Homo sapiens, 48 h; for CC50: read-out: Log10 LC50 (converted); for IC (TGI): read-out: Log10 TGI
[8] = tested on: HL-60(TB); experiment: SRB growth screen, leukemia HL-60(TB); conditions: Homo sapiens, HL-60, 48 h; for CC50: read-out: Log10 LC50 (converted); for IC (TGI): read-out: Log10 TGI
[9] = tested on: 786-0; experiment: SRB growth screen, renal cancer 786-0; conditions: Homo sapiens, 786-0, 48 h; for CC50: read-out: Log10 LC50 (converted); for IC (TGI): read-out: Log10 TGI
[10] = tested on: UO-31; experiment: SRB growth screen, renal cancer UO-31; conditions: Homo sapiens, UO-31, 48 h; for CC50: read-out: Log10 LC50 (converted); for IC (TGI): read-out: Log10 TGI
[11] = tested on: HCT-15; experiment: SRB growth screen, colon cancer HCT-15; conditions: Homo sapiens, HCT-15, 48 h; for GI50: read-out: Log10 GI50 (converted); for CC50: read-out: Log10 LC50 (converted); for IC (TGI): read-out: Log10 TGI
[12] = tested on: SW-620; experiment: SRB growth screen, colon cancer SW-620; conditions: Homo sapiens, SW-620, 48 h; for CC50: read-out: Log10 LC50 (converted); for IC (TGI): read-out: Log10 TGI
[13] = tested on: BT-549; experiment: SRB growth screen, breast cancer BT-549; conditions: Homo sapiens, BT-549, 48 h; for GI50: read-out: Log10 GI50 (converted); for CC50: read-out: Log10 LC50 (converted); for IC (TGI): read-out: Log10 TGI
[14] = tested on: COLO 205; experiment: SRB growth screen, colon cancer COLO 205; conditions: Homo sapiens, COLO 205, 48 h; for CC50: read-out: Log10 LC50 (converted)
[15] = tested on: OVCAR-3; experiment: SRB growth screen, ovarian cancer OVCAR-3; conditions: Homo sapiens, OVCAR-3, 48 h; for CC50: read-out: Log10 LC50 (converted); for IC (TGI): read-out: Log10 TGI
[16] = tested on: OVCAR-4; experiment: SRB growth screen, ovarian cancer OVCAR-4; conditions: Homo sapiens, OVCAR-4, 48 h; for GI50: read-out: Log10 GI50 (converted); for CC50: read-out: Log10 LC50 (converted); for IC (TGI): read-out: Log10 TGI
[17] = tested on: DU-145; experiment: SRB growth screen, prostate cancer DU-145; conditions: Homo sapiens, DU-145, 48 h; for CC50: read-out: Log10 LC50 (converted); for IC (TGI): read-out: Log10 TGI
[18] = tested on: MDA-MB-231/ATCC; experiment: SRB growth screen, breast cancer MDA-MB-231/ATCC; conditions: Homo sapiens, MDA-MB-231, 48 h; for CC50: read-out: Log10 LC50 (converted)
[19] = tested on: HOP-62; conditions: Homo sapiens, HOP-62, 48 h; for CC50: read-out: Log10 LC50 (converted)
[20] = tested on: NCI-H460; conditions: Homo sapiens, NCI-H460, 48 h; for CC50: read-out: Log10 LC50 (converted)
[21] = tested on: NCI-H522; conditions: Homo sapiens, NCI-H522, 48 h; for GI50: read-out: Log10 GI50 (converted); for IC (TGI): read-out: Log10 TGI
[22] = read-out: Log10 GI50 (converted)
[23] = 48 h, read-out: Log10 LC50 (converted)
[24] = read-out: concentration considered cytostasis (percentage growth 0)
[25] = read-out: concentration necessary to achieve primary growth inhibition (PG +50)
[26] = read-out: cytotoxicity concentration (percentage growth -50)

Which results are given for `CC(=O)O[C@H]1C(=O)[C@@]2(C)[C@H]([C@H](OC(=O)c3ccccc3)[C@]3(O)C[C@H](OC(=O)[C@H](O)[C@@H](NC(=O)C4(C)OC4C)c4ccccc4)C(C)=C1C3(C)C)[C@]1(OC(C)=O)CO[C@@H]1C[C@@H]2O` (stereo partly drawn) [Ceph-epoxide, cephalomannine epoxide]?
CC50 [1]: 64.6 µM; GI50 ([1]; mean over cell lines): 28.8 nM; IC (TGI) ([1]; mean over cell lines): 5.75 µM; GI50 [2, 22]: < 0.01 µM; CC50 [2]: > 100 µM; IC (TGI) [2]: > 100 µM; GI50 [3, 22]: < 0.01 µM; CC50 [3]: > 100 µM; GI50 ([4]; 48 h, read-out: Log10 GI50 (converted)): < 0.01 µM; CC50 [4, 23]: > 100 µM; IC (TGI) ([4]; 48 h, read-out: Log10 TGI): 2.51 µM; IC (TGI) [4, 24]: 2.51 µM; pIC50 [4, 25]: > 8.00; CC50 [4, 26]: > 100 µM; GI50 [5, 22]: < 0.01 µM; CC50 [5]: 0.0407 µM; IC (TGI) ([5]; read-out: Log10 TGI): < 0.01 µM; GI50 [6, 22]: 0.0257 µM; CC50 [6]: > 100 µM; IC (TGI) [6]: > 100 µM; GI50 [7, 22]: < 0.01 µM; CC50 [7]: > 100 µM; IC (TGI) [7]: 21.4 µM; GI50 [8, 22]: < 0.01 µM; CC50 [8]: > 100 µM; IC (TGI) [8]: < 0.01 µM; CC50 [9]: > 100 µM; IC (TGI) [9]: > 100 µM; GI50 [10, 22]: 2 µM; CC50 [10]: > 100 µM; IC (TGI) [10]: > 100 µM; GI50 [11]: 0.603 µM; CC50 [11]: > 100 µM; IC (TGI) [11]: > 100 µM; CC50 [12]: > 100 µM; IC (TGI) [12]: > 100 µM; GI50 [13]: 0.01 µM; CC50 [13]: < 100 µM; IC (TGI) [13]: 0.0977 µM; GI50 [14, 22]: < 0.01 µM; CC50 [14]: 0.603 µM; IC (TGI) ([14]; read-out: Log10 TGI): 0.0269 µM; GI50 [15, 22]: < 0.01 µM; CC50 [15]: > 100 µM; IC (TGI) [15]: 0.0182 µM; GI50 [16]: 3.89 µM; CC50 [16]: > 100 µM; IC (TGI) [16]: > 100 µM; GI50 [17, 22]: 0.0263 µM; CC50 [17]: > 100 µM; IC (TGI) [17]: 0.145 µM; GI50 [18, 22]: 0.0182 µM; CC50 [18]: > 100 µM; GI50 [19, 22]: 0.0245 µM; CC50 [19]: > 100 µM; GI50 [20, 22]: < 0.01 µM; CC50 [20]: > 100 µM; IC (TGI) ([20]; read-out: Log10 TGI): > 100 µM; GI50 [21]: < 10 nM; IC (TGI) [21]: 33.1 nM

Which results are given for `CC(=O)O[C@H]1C(=O)[C@@]2(C)[C@H]([C@H](OC(=O)c3ccccc3)[C@]3(O)C[C@H](OC(=O)[C@H](O)[C@@H](NC(=O)c4ccccc4)c4ccccc4)C(C)=C1C3(C)C)[C@]1(OC(C)=O)CO[C@@H]1C[C@@H]2O` [Paclitaxel, paclitaxel, reference compound]?
CC50 ([1]; mean over cell lines): 87.1 µM; GI50 ([1]; mean over cell lines): 0.0708 nM; IC (TGI) ([1]; mean over cell lines): 28.8 µM; CC50 [2]: > 100 µM; IC (TGI) [2]: > 100 µM; CC50 [3]: 70.8 µM; IC (TGI) ([3]; read-out: Log10 TGI): 47.9 µM; CC50 [4, 23]: > 100 µM; IC (TGI) ([4]; 48 h, read-out: Log10 TGI): > 100 µM; pIC50 ([4]; read-out: concentration at which primary growth inhibition occurs (PG +50)): 11.61; IC (TGI) [4, 24]: > 100 µM; pIC50 [4, 25]: > 8.00; CC50 [4, 26]: > 100 µM; CC50 [5]: > 100 µM; CC50 [6]: > 100 µM; IC (TGI) [6]: > 100 µM; CC50 [7]: > 70.8 µM; IC (TGI) [7]: 22.4 µM; CC50 [8]: > 100 µM; IC (TGI) [8]: > 29.5 µM; CC50 [9]: > 100 µM; IC (TGI) [9]: > 100 µM; CC50 [10]: > 100 µM; IC (TGI) [10]: 51.3 µM; GI50 [11]: 0.427 µM; CC50 [11]: > 100 µM; IC (TGI) [11]: > 100 µM; CC50 [12]: > 100 µM; IC (TGI) [12]: > 100 µM; GI50 [13]: 0.00049 µM; CC50 [13]: > 100 µM; IC (TGI) [13]: 0.479 µM; CC50 [14]: > 38.9 µM; CC50 [15]: > 100 µM; IC (TGI) [15]: 28.2 µM; GI50 [16]: 10 µM; CC50 [16]: > 100 µM; IC (TGI) [16]: 64.6 µM; CC50 [17]: > 100 µM; IC (TGI) [17]: > 100 µM; CC50 [18]: 51.3 µM; IC (TGI) ([18]; read-out: Log10 TGI): 14.5 µM; CC50 [19]: 79.4 µM; IC (TGI) ([19]; read-out: Log10 TGI): 15.8 µM; CC50 [20]: > 100 µM; GI50 [21]: < 0.0001 nM; CC50 ([21]; read-out: Log10 LC50 (converted)): > 100 µM; IC (TGI) [21]: 0.00631 nM
